Test results published in patent US9878982B2, “Pyridine derivatives and anti-mycobacterial use thereof” (priority 2014, dated 2018).
Values after ≈ are worked out from the molar mass of the structure shown.

How the values were obtained:
[1] = tested on: isoniazide-resistant Mycobacterium tuberculosis strains (rINH); assay: microbe, parasite or virus in culture; format: cell-based; details: for MIC: Mycobacterium tuberculosis, read-out: MABA MIC vs. rINH, isoniazide-resistant strain; for MIC / MABA MIC vs. rINH: two values per compound; for MABA MIC vs. rINH: isoniazide-resistant strain
[2] = tested on: rifampicin-resistant M. tuberculosis strain (rRMP); assay: microbe, parasite or virus in culture; format: cell-based, Mycobacterium tuberculosis; details: for MIC: Mycobacterium tuberculosis, read-out: MABA MIC vs. rRMP, rifampicin-resistant M. tuberculosis strain; for MIC / MABA MIC vs. rRMP: two values per compound; for MABA MIC vs. rRMP: rifampicin-resistant M. tuberculosis strain

Row | Structure (SMILES) | MIC [1] [µM] | MABA MIC vs. rINH [1] [µM] | MIC [2] [µM] | MABA MIC vs. rRMP [2] [µM] | inhibitory activity against isoniazid-resistant strain (in words) [1] | inhibitory activity against rifampin-resistant strain (in words) [2]
1 | COc1ncc(-c2ccccc2)cc1C(c1ccccc1)C(O)(CCN(C)C)c1cccc2ccccc12 (stereo not drawn) [Compound 9, 4-(dimethylamino)-1-(2-methoxy-5-phenylpyridin-3-yl)-2-(naphthalen-1-yl)-1-phenylbutan-2-ol] | 0.47 (≈ 0.236 µg/mL) | 0.44 | 0.9 (≈ 0.452 µg/mL) | 0.91 | – | –
2 | COc1ncc(-c2ccc(Cl)cc2)cc1C(c1ccccc1)C(O)(CCN(C)C)c1cccc2ccccc12 (stereo not drawn) [Compound 115, 1-(5-(4-chlorophenyl)-2-methoxypyridin-3-yl)-4-(dimethylamino)-2-(naphthalen-1-yl)-1-phenylbutan-2-ol] | 0.11 (≈ 0.0591 µg/mL) | 0.12 | 0.18 (≈ 0.0967 µg/mL) | – | comparable to that of the marketed anti-TB drug, Bedaquiline | comparable to that of the marketed anti-TB drug, Bedaquiline
3 | COc1ncc(-c2ccc(Br)cc2)cc1C(c1ccccc1)C(O)(CCN(C)C)c1cccc2ccccc12 (stereo not drawn) [Compound 133, 1-(5-(4-bromophenyl)-2-methoxypyridin-3-yl)-4-(dimethylamino)-2-(naphthalen-1-yl)-1-phenylbutan-2-ol] | 0.22 (≈ 0.128 µg/mL) | 0.12 | 0.24 (≈ 0.14 µg/mL) | 0.34 | comparable to that of the marketed anti-TB drug, Bedaquiline | comparable to that of the marketed anti-TB drug, Bedaquiline
4 | CO[C@H]1/C=C/O[C@@]2(C)Oc3c(C)c(O)c4c(O)c(c(/C=N/N5CCN(C)CC5)c(O)c4c3C2=O)NC(=O)/C(C)=C\C=C\[C@H](C)[C@H](O)[C@@H](C)[C@@H](O)[C@@H](C)[C@H](OC(C)=O)[C@@H]1C [rifampin, reference compound] | < 0.016 | – | > 4 | – | – | –
5 | NNC(=O)c1ccncc1 [isoniazide, isoniazid, reference compound] | > 8 | – | 0.83 (≈ 0.114 µg/mL) | 0.65 | – | –
6 | COc1nc2ccc(Br)cc2cc1[C@@H](c1ccccc1)[C@@](O)(CCN(C)C)c1cccc2ccccc12 [Bedaquiline, reference compound] | 0.07 (≈ 0.0389 µg/mL) | 0.09 | 0.12 (≈ 0.0667 µg/mL) | 0.13 | – | –
